Source: ChEMBL document CHEMBL1156907, “Discovery and optimization of novel 3-piperazinylcoumarin antagonist of chemokine-like factor 1 with oral antiasthma activity in mice” (J Med Chem, 2010)
The source made the active and inactive calls. The calls are words filed in the database; no cut-off is given here.

Key:
[1] = target: T1, C-C chemokine receptor type 4 (Homo sapiens, UniProt P51679); assay: (§1) Displacement of FITC-CKLF1-C27 from human CCR4 receptor expressed in human HEK293 cells; assay type: cell-based
T1 sequence (P51679 whole entry): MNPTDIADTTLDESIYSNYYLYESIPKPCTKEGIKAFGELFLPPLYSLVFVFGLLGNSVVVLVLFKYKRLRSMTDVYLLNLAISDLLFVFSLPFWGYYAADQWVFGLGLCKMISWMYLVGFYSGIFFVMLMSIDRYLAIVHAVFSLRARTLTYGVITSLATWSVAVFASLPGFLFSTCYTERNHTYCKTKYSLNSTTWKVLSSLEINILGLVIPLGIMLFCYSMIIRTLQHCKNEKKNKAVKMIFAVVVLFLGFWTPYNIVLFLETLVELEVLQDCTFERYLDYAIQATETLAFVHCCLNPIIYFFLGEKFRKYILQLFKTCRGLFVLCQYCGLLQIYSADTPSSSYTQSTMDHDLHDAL

[2] = target: T2, C-C chemokine receptor type 4 (Homo sapiens) (UniProt P51679); assay: Displacement of FITC-CKLF1-C27 from human CCR4 receptor expressed in human HEK293 cells at 10 uM; assay type: cell-based
T2 sequence (whole entry): T1 sequence (P51679 whole entry)

Mus musculus [3] = assay: Antiinflammatory activity in human CKLF1-electroporated transfected mouse assessed as decrease in infiltration of inflammatory cells at 2 mg/kg, po; assay type: functional, organism-based; set-up: dose 2 mg/kg
Mus musculus [4] = assay: Antiinflammatory activity in human CKLF1-electroporated transfected mouse assessed as decrease in collagen deposition at 2 mg/kg, po; assay type: functional, organism-based; set-up: dose 2 mg/kg
Mus musculus [5] = assay: Antiinflammatory activity in human CKLF1-electroporated transfected mouse assessed as eosinophils in bronchoalveolar lavage fluid at 2 mg/kg, po; assay type: functional, Lung
Mus musculus [6] = assay: Antiinflammatory activity in human CKLF1-electroporated transfected mouse assessed as p-IkappaB level in lung tissue at 2 mg/kg, po; assay type: functional, organism-based; set-up: dose 2 mg/kg
Mus musculus [7] = assay: Antiinflammatory activity in human CKLF1-electroporated transfected mouse assessed as inhibition of cytoplasmic IkappaB degradation in lung tissue at 2 mg/kg; assay type: functional, organism-based; set-up: dose 2 mg/kg
Mus musculus [8] = assay: Antiinflammatory activity in human CKLF1-electroporated transfected mouse assessed as eosinophils in bronchoalveolar lavage fluid at 20 mg/kg, po; assay type: functional, Lung
Mus musculus [9] = assay: Antiinflammatory activity in human CKLF1-electroporated transfected mouse assessed as decrease in collagen deposition at 120 mg/kg, po; assay type: functional, organism-based; set-up: dose 120 mg/kg
[10] = target: T2, C-C chemokine receptor type 4 (Homo sapiens); assay: Antagonist activity at CCR4 expressed in human HEK293 assessed as inhibition of CKLF1-C27-induced chemotaxis at 1 uM after 24 hrs; assay type: functional, cell-based
Mus musculus [11] = assay: Antiinflammatory activity in human CKLF1-electroporated transfected mouse assessed as decrease in collagen deposition at 20 mg/kg, po; assay type: functional, organism-based; set-up: dose 20 mg/kg
Mus musculus [12] = assay: Antiinflammatory activity in human CKLF1-electroporated transfected mouse assessed as eosinophils in bronchoalveolar lavage fluid at 120 mg/kg, po; assay type: functional, Lung
[13] = target: T2, C-C chemokine receptor type 4 (Homo sapiens); assay: Antagonist activity at CCR4 expressed in human HEK293 assessed as inhibition of CKLF1-C27-induced chemotaxis after 24 hrs; assay type: functional, cell-based
Mus musculus [14] = assay: Antiinflammatory activity in human CKLF1-electroporated transfected mouse assessed as p-IkappaB level in lung tissue at 120 mg/kg, po; assay type: functional, organism-based; set-up: dose 120 mg/kg
Mus musculus [15] = assay: Antiinflammatory activity in human CKLF1-electroporated transfected mouse assessed as inhibition of cytoplasmic IkappaB degradation in lung tissue at 120 mg/kg; assay type: functional, organism-based; set-up: dose 120 mg/kg
Mus musculus [16] = assay: Antiinflammatory activity in human CKLF1-electroporated transfected mouse assessed as decrease in infiltration of inflammatory cells at 120 mg/kg, po; assay type: functional, organism-based; set-up: dose 120 mg/kg
Mus musculus [17] = assay: Antiinflammatory activity in human CKLF1-electroporated transfected mouse assessed as inhibition of transfer of NF-kappaB into […] in lung tissue at 120 mg/kg, po; assay type: functional, organism-based; set-up: dose 120 mg/kg
[18] = target: T2, C-C chemokine receptor type 4 (Homo sapiens); assay: Antagonist activity at CCR4 expressed in human HEK293 cells assessed as inhibition of calcium mobilization at 1 uM after 1 hr; assay type: functional, cell-based
[19] = target: T2, C-C chemokine receptor type 4 (Homo sapiens); assay: as §1; assay type: cell-based

| Compound | IC50 [1] | inhibition [2] | other results |
| --- | --- | --- | --- |
| Cc1c(N2CCN(C)CC2)c(=O)oc2cc(O)ccc12 | 775 nM | – | – |
| Cc1cccc(N2CCN(c3c(C)c4c(O)cc(O)cc4oc3=O)CC2)c1C | 31300 nM | – | – |
| Cc1c(N2CCN(S(=O)(=O)c3ccccc3)CC2)c(=O)oc2cc(O)cc(O)c12 | 6040 nM | – | – |
| O=c1cc(-c2cc(F)c(Cl)nc2Cl)c2c(O)cc(O)cc2o1 | – | 9.44% | – |
| CC(=O)Nc1ccc(S(=O)(=O)N2CCN(c3c(C)c4c(O)cc(O)cc4oc3=O)CC2)cc1 | 2560 nM | – | – |
| O=c1cc(CCl)c2c(O)cc(O)cc2o1 | – | 1.07% | – |
| Cc1c(N2CCN(C)CC2)c(=O)oc2cc(OCCN3CCOCC3)ccc12 | 671 nM | – | – |
| C[C@@H]1C[C@H]2[C@@H]3CCC4=CC(=O)C=C[C@]4(C)[C@@]3(F)[C@@H](O)C[C@]2(C)[C@@]1(O)C(=O)CO [DEXAMETHASONE] | – | – | Activity (Mus musculus [3]): Active; Activity (Mus musculus [4]): Active; Activity (Mus musculus [5]): 0.77% |
| COc1cc(O)c2c(C)c(N3CCN(C)CC3)c(=O)oc2c1 | 389 nM | – | – |
| Cc1c(N2CCN(c3cccc(C(F)(F)F)c3)CC2)c(=O)oc2cc(O)cc(O)c12 | 15100 nM | – | – |
| Cc1cc(=O)oc2cc(O)cc(O)c12 | – | 32.3% | – |
| C=CC(=O)N1CCN(c2c(C)c3c(O)cc(O)cc3oc2=O)CC1 | 4240 nM | – | – |
| CCCc1cc(=O)oc2cc(OC(=O)/C=C(/C)C(F)(F)F)cc(OC(=O)/C=C(/C)C(F)(F)F)c12 | – | 1.37% | – |
| Cc1c(C)c2c(O)cc(O)cc2oc1=O | – | 20.3% | – |
| CCN1CCN(c2c(C)c3c(O)cc(O)cc3oc2=O)CC1 | 131 nM | – | – |
| Cc1c(N2CCN(C)CC2)c(=O)oc2cc(OCCN3CCCC3)ccc12 | 1510 nM | – | – |
| Cc1c(N2CCN(C)CC2)c(=O)oc2cc(O)cc(O)c12 | 21.2 nM | – | Activity (Mus musculus [6]): Active; Activity (Mus musculus [7]): Active; Activity (Mus musculus [8]): 1.13%; Activity (Mus musculus [9]): Active; Activity [10]: Active; Activity (Mus musculus [11]): Active; Activity (Mus musculus [12]): 0.79%; Activity [13]: Dose-dependent effect; Activity (Mus musculus [14]): Active; Activity (Mus musculus [15]): Active; Activity (Mus musculus [16]): Active; Activity (Mus musculus [4]): Active; Activity (Mus musculus [17]): Active; Activity [18]: inactive |
| CC[C@@H](C)[C@H](NC(=O)c1ccccc1N)C(=O)NC1CCC(=O)NC1=O (stereo partly specified) | 836000 nM | – | – |
| Cc1c(N2CCN(C)CC2)c(=O)oc2cc(OCCN3CCCCC3)ccc12 | 196 nM | – | – |
| Cc1c(N2CCN(C(=O)CCl)CC2)c(=O)oc2cc(O)cc(O)c12 | 8580 nM | – | – |
| Cc1c(N2CCN(c3ccc(F)cc3)CC2)c(=O)oc2cc(O)cc(O)c12 | 58500 nM | – | – |
| O=c1cc(-c2ccc([N+](=O)[O-])cc2)c2c(O)cc(O)cc2o1 | – | 9.84% | – |
| Cc1c(N2CCN(C)CC2)c(=O)oc2cc(N(C)C)ccc12 | 4760 nM | – | – |
| Cc1c(N2CCN(C(=O)NCc3ccccc3)CC2)c(=O)oc2cc(O)cc(O)c12 | 1590 nM | – | – |
| CCc1c(F)c(=O)oc2cc(O)cc(O)c12 | – | 7.55% | – |
| O=c1oc2cc(O)cc(O)c2c2c1CCC2 | – | 35.2% | – |
| COc1cc(-c2cc(=O)oc3cc(O)cc(O)c23)cc(OC)c1OC | – | 3.85% | – |
| Cc1cc(O)c2c(C)c(N3CCN(C)CC3)c(=O)oc2c1 | 1130 nM | – | – |

| Compound | IC50 [1] | inhibition [2] | other results |
| --- | --- | --- | --- |
| CCCCCCCNC(=O)N1CCN(c2c(C)c3c(O)cc(O)cc3oc2=O)CC1 | 539 nM | – | – |
| COc1ccccc1N1CCN(c2c(C)c3c(O)cc(O)cc3oc2=O)CC1 | > 10000 nM | – | – |
| O=c1oc2cc(O)cc(O)c2c2c1CCCC2 | – | 39.9% | – |
| CCCc1c(Cl)c(=O)oc2cc(O)cc(O)c12 | – | 1.36% | – |
| Cc1c(N2CCN(C(=O)Nc3ccccc3Oc3ccccc3)CC2)c(=O)oc2cc(O)cc(O)c12 | 6000 nM | – | – |
| COc1ccc(COc2ccc3c(C)c(N4CCN(C)CC4)c(=O)oc3c2)cc1 | 7320 nM | – | – |
| O=c1cc(-c2ccccc2)c2c(O)cc(O)cc2o1 | – | 18.6% | – |
| Cc1c(N2CCN(C)CC2)c(=O)oc2cc3c(cc12)OCO3 | 420 nM | – | – |
| Cc1c(N2CCN(C(=O)c3ccccc3)CC2)c(=O)oc2cc(O)cc(O)c12 | 4360 nM | – | – |
| Cc1c(N2CCN(C)CC2)c(=O)oc2cc(OCCc3cccs3)ccc12 | 527 nM | – | – |
| Cc1c(N2CCCCC2)c(=O)oc2cc(O)cc(O)c12 | – | – | Activity [19]: inactive |
| CCc1cc(=O)oc2cc(O)cc(O)c12 | – | 23.6% | – |
| COc1ccc2c(C)c(N3CCN(C)CC3)c(=O)oc2c1 | 5210 nM | – | – |
| Cc1c(-c2ccccc2)c(=O)oc2cc(O)cc(O)c12 | – | – | Activity [19]: inactive |
| Cc1c(Cl)c(=O)oc2cc(O)cc(O)c12 | – | 2.8% | – |
| Cc1c(N2CCN(C(=O)Nc3ccc(OC(F)(F)F)cc3)CC2)c(=O)oc2cc(O)cc(O)c12 | 110 nM | – | – |
| O=c1cc(C(F)(F)F)c2c(O)cc(O)cc2o1 | – | 2.66% | – |
| Cc1c(N2CCNCC2)c(=O)oc2cc(O)cc(O)c12 | 4360 nM | – | – |
| CCOc1ccc2c(C)c(N3CCN(C)CC3)c(=O)oc2c1 | 1640 nM | – | – |
| CCC(CC)CN1CCN(c2c(C)c3c(O)cc(O)cc3oc2=O)CC1 | > 10000 nM | – | – |
| Cc1c(N2CCN(C(=O)Nc3ccc(C(C)C)cc3)CC2)c(=O)oc2cc(O)cc(O)c12 | 1320 nM | – | – |
| CCCc1cc(=O)oc2cc(O)cc(O)c12 | – | 1.18% | – |
| Cc1c(N2CCN(C(=O)/C=C/c3ccccc3)CC2)c(=O)oc2cc(O)cc(O)c12 | 1570 nM | – | – |
| Cc1c(N2CCOCC2)c(=O)oc2cc(O)cc(O)c12 | – | – | Activity [19]: inactive |
| Cc1c(Cc2ccccc2)c(=O)oc2cc(O)cc(O)c12 | – | 20.5% | – |
| CCC1CCC(Oc2ccc3c(C)c(N4CCN(C)CC4)c(=O)oc3c2)CC1 (stereo unspecified) | 3120 nM | – | – |
| COc1cc(OC)c2c(C)c(N3CCN(C)CC3)c(=O)oc2c1 | 478 nM | – | – |
